{
  "source": "patent US20080293818A1",
  "about": "“Regulator of Physiological Function of Ghrelin and Use Thereof” (priority 2004, published 2008)",
  "key": {"ghrelin mRNA": {"test_system": "ghrelin mRNA", "assay": "Northern blot of stomach ghrelin mRNA after glyceryl trioctanoate ingestion", "type": "in vivo, mouse", "conditions": "after 4 days of ingestion", "from_the_text": "Total RNAs were extracted from the stomachs of male C57BL/6J mice (12 week old) by acid guanidium thiocyanate-phenol chloroform extraction [D24] using TRIzol reagent (Invitrogen, Carlsbad Calif., USA). Two μg of total RNA was electrophoresed through a 1% agarose gel containing formaldehyde, and then transferred to a Zeta-Probe blotting membrane (Bio-Rad Laboratories, Hercules, Calif.). Membranes were hybridized with a ^32P-labeled rat ghrelin cDNA probe in hybridization buffer containing 50% formamide, 5×SSPE, 5×Denhardt's solution, 1% sodium dodecyl sulfate (SDS), and 100 μg/ml denatured salmon sperm. After an overnight hybridization at 37° C., membranes were washed and exposed to BioMax-MS film (Eastman Kodak, Rochester, N.Y.) for 12 hours at −80° C. Ghrelin mRNA levels were quantified using a Bioimaging analyzer BAS 2000 (Fujix, Tokyo, Japan).\nTo examine if the ingestion of MCTs affects the expression of ghrelin mRNA, mouse stomach RNA was quantitated by Northern blot analysis after 4 days of glyceryl trioctanoate ingestion.\nEach lane contained 2 μg of total RNA. The lower panel indicates 28S and 18S ribosomal RNAs internal controls."}, "[1]": {"test_system": "des-acyl and acyl-modified ghrelin peptides in the stomach", "assay": "Molecular forms of stomach ghrelin peptide after ingestion (HPLC fractionation, C-RIA)", "type": "in vivo, mouse", "experimental": "(§1) Male C57BL/6J mice weighing 20-25 g (10-12 week old) were maintained under controlled temperature (21-23° C.) and light conditions (light on 0700-1900) with ad libitum access to food and water. Medium-chain fatty acids (MCFAs), i.e., n-hexanoic, n-octanoic, and n-lauric acids (Sigma-Aldrich Japan Co., Ltd., Tokyo), were dissolved in water at 5 mg/ml. n-Palmitic acid, a common long-chain fatty acid (LCFA) (Sigma-Aldrich Japan Co., Ltd., Tokyo), was mixed into standard laboratory chow (CLEA Rodent Diet CE-2, CLEA Japan, Osaka) at a concentration of 1% (w/w), to equilibrate the total intake amount of this lipid to the other medium-chain fatty acids contained in the food. Medium- and long-chain triglycerides (MCTs and LCTs), i.e., glyceryl trihexanoate, trioctanoate, tridecanoate and tripalmitates (Wako Pure Chemical, Osaka, Japan), were mixed with standard laboratory chow at a concentration of 5% (w/w). Whole stomach tissues from treated mice were collected at the indicated times (0-14 days) after ingesting the free fatty acid- or triacylglyceride-containing food. Fresh tissue samples from these mice were diced and boiled for 5 minutes in a 10-fold volume of water. The tissue-containing solution was then adjusted to 1M acetic acid after cooling and then homogenized with a Polytron mixer. The supernatant, obtained after centrifugation at 15,000 rpm for 15 minutes, was then lyophilized. The lyophilized material was dissolved in RIA buffer and subjected to ghrelin C- and N-RIA. To elucidate the forms of ghrelin peptides modified by different acyl groups, extracted stomach peptides were collected using a Sep-Pak Plus C18 cartridge (Waters, Milford, Mass.) and subjected to C18 RP-HPLC (Symmetry 300, 3.9×150 mm, Waters) with a linear gradient from 10 to 60% CH3CN/0.1% TFA at a flow rate of 1.0 ml/minute for 40 minutes. Five hundred micro-litter fractions were collected. Ghrelin peptide content in each fraction was measured by ghrelin C- and N-RIA as described above. Degradation of ghrelin was not observed during the extraction.\nTo clarify what molecular forms of ghrelin peptide are present after the ingestion of triacylglycerol (triacylglycerin), peptide extracts from stomachs of mouse fed chow containing glyceryl trihexanoate (C6:0-MCT), glyceryl trioctanoate (C8:0-MCT), glyceryl tridecanoate (C10:0-MCT), and standard laboratory chow (Control) were fractionated by HPLC, and measured for ghrelin immunoreactivity by C-RIA. […] Based on the observed retention times of synthetic acyl-modified ghrelin peptides, peaks a, d, h, and k corresponded to des-acyl ghrelin, peaks b, f, i, and 1 corresponded to n-octanoyl (C8:0) ghrelin, and peaks c, g, j, and m corresponded to n-decenoyl (10:1) ghrelin.\nMale C57BL/6J mice were fed chow mixed with 5% (w/w) glyceryl trihexanoate (C6:0-MCT), glyceryl trioctanoate (C8:0-MCT), or glyceryl tri-decanoate (C10:0-MCT) for 14 days. The concentrations of des-acyl ghrelin, n-hexanoyl ghrelin (C6:0-ghrelin), n-octanoyl ghrelin (C8:0-ghrelin), n-decenoyl ghrelin (C10:1-ghrelin), and n-decanoyl ghrelin (C10:0-ghrelin) from stomach samples (from 0.2 mg wet weight) were measured by ghrelin C-RIA after HPLC fractionation."}, "[2]": {"test_system": "acyl-modified and total ghrelin in the stomach", "assay": "Stomach ghrelin content after medium- to long-chain triacylglycerol ingestion (N-RIA / C-RIA)", "type": "in vivo, mouse", "conditions": "mice, 5% (w/w) in chow, two weeks, N-RIA", "experimental": "(§2) RIAs specific for ghrelin were performed as previously described [D2]. Two polyclonal antibodies were raised in rabbits against the N-terminal (Gly^1-Lys^11 with O-n-octanoylation at Ser^3) and C-terminal (Gln^13-Arg^28) fragments of rat ghrelin. RIA incubation mixtures were composed of 100 μl of either standard ghrelin or an unknown sample, with 200 μl of antiserum diluted in RIA buffer (50 mM sodium phosphate buffer (pH 7.4), 0.5% BSA, 0.5% Triton-X100, 80 mM sodium chloride (NaCl), 25 mM disodium ethylenediamine-tetraacetate (EDTA 2-Na) and 0.05% sodium azide (NaN3)) containing 0.5% normal rabbit serum. Anti-rat ghrelin [D1-D11] and anti-rat ghrelin [D13-D28] antisera were used at final dilutions of 1/3,000,000 and 1/20,000, respectively. After a 12-hour incubation at 4° C., 100 μl of ^125I-labeled ligand (20,000 cpm) was added for an additional 36-hour incubation. Then, 100 μl of anti-rabbit goat antibody was added. After incubation for 24 hours at 4° C., free and bound tracers were separated by centrifugation at 3,000 rpm for 30 min. Pellet radioactivity was quantified in a gamma counter (ARC-600, Aloka, Tokyo). All assays were performed in duplicate at 4° C.\nas §1\nOrally ingested triacylglycerols are intraluminally hydrolyzed and absorbed through the gastro-intestinal mucosa as free fatty acids or monoglycerides. Thus, ingested triacylglycerols may serve as a source of free fatty acids [D26]. To examine if ingested triacylglycerols are used for acyl-modification of ghrelin, mice were fed chow mixed with 5% (w/w) glyceryl trihexanoate (C6), trioctanoate (C8), tridecanoate (C10), and tripalmintate (C16). After two weeks, gastric peptides were extracted. Ghrelin concentration in the stomach of these mice and in that from mice fed standard laboratory chow (Control) (n=8) are shown. The content of acyl-modified and total ghrelins was measured by N- and C-RIA. […]"}, "[3]": {"test_system": "acyl-modified and total ghrelin in the stomach", "assay": "Time course of acyl-modified ghrelin production after glyceryl trioctanoate ingestion", "type": "in vivo, mouse", "experimental": "To examine time-dependent changes in the production of n-octanoyl ghrelin after the ingestion of a glyceryl trioctanoate, mice were fed with glyceryl trioctanoate-containing chow (5%, w/w) after a 12-hour fasting period. The concentrations of acyl-modified and total ghrelins in the stomach were measured at the indicated times.\nA represents acyl-modified ghrelin content measured by ghrelin N-RIA. B represents total ghrelin content measured by ghrelin C-RIA. After 12-hour fasting, glyceryl trioctanoate (5% w/w)-containing chow was given to mice beginning at the time (0 hour) indicated by the arrow. Stomach samples were isolated from control mice fed standard laboratory chow (closed circles) and mice fed glyceryl trioctanoate (open circles) at the indicated times. Each point represents mean ±S.D. (n=8). Asterisks indicate statistical significance. *, p<0.05; **, p<0.01 and ***, p<0.001 vs. control."}, "[4]": {"test_system": "anti-rat ghrelin [D1-D11] antiserum", "assay": "Cross-reactivity of ghrelin N-RIA", "type": "binding, rabbit", "conditions": "for cross-reactivity of N-RIA: relative to n-octanoyl ghrelin", "experimental": "as §2\nThe cross-reactivity of N-RIA to n-decanoyl ghrelin and that to n-hexanoyl ghrelin are 20% and 0.3%, respectively. Anti-rat ghrelin [D13-D28] antiserum equally recognized both des-acyl and all acylated forms of ghrelin peptide. In the following sections, the RIA system using the antiserum against the N-terminal fragment of rat ghrelin [D1-D11] is termed N-RIA, while the RIA system using antiserum against the C-terminal fragment [D13-D28] is termed C-RIA."}, "plasma ghrelin peptides": {"test_system": "plasma ghrelin peptides", "assay": "Molecular forms of circulating (plasma) ghrelin after glyceryl triheptanoate ingestion", "type": "in vivo, mouse", "conditions": "fed 4 days, HPLC, C-RIA", "experimental": "Plasma samples were prepared as previously described [D2]. Whole blood samples were immediately transferred to chilled polypropylene tubes containing EDTA-2 Na (1 mg/ml) and aprotinin (1,000 kallikrein inactivator units/ml) and centrifuged at 4° C. Immediately after separation of the plasma, hydrogen chloride was added to the sample at final concentration of 0.1 N and then diluted with an equal volume of physiological saline. The sample was loaded onto a Sep-Pak C18 cartridge (Waters, Milford, Mass.) pre-equilibrated with 0.1% trifluoroacetic acid (TFA) and 0.9% NaCl. The cartridge was washed with 0.9% NaCl and 5% acetonitrile (CH3CN)/0.1% TFA, and then eluted with 60% CH3CN/0.1% TFA. The eluate was then lyophilized and residual materials were redissolved in 1 M acetic acid (AcOH) and adsorbed onto a SP-Sephadex C-25 column (H^+-form, Pharmacia, Uppsala, Sweden) pre-equilibrated in 1 M AcOH. Successive elution with 1 M AcOH, 2 M pyridine, and 2 M pyridine-AcOH (pH 5.0) provided three fractions: SP-I, SP-II and SP-III. […] Ghrelin peptide content in each fraction was measured by ghrelin C-RIA as described above.\nPlasma samples collected from control mice fed standard chow (A) and glyceryl triheptanoate-treated mice (B) were fractionated by HPLC and measured for ghrelin immunoreactivity by C-RIA. […]"}, "[5]": {"test_system": "n-heptanoyl ghrelin in the stomach", "assay": "Molecular forms of stomach ghrelin after glyceryl triheptanoate ingestion (HPLC, C-RIA and N-RIA)", "type": "in vivo, mouse", "experimental": "as §1\nMale C57BL/6J mice weighing 20-25 g (10-12 week old) were maintained under controlled temperature (21-23° C.) and light conditions (light on 0700-1900) with ad libitum access to food and water. Glyceryl triheptanoate (Fluka Chemie GmbH, Buchs, Switzerland) was mixed with standard laboratory chow at a concentration of 5% (w/w). Four days after mice were fed glyceryl triheptanoate-containing food, stomachs (total 1,000 mg) were recovered from mice (n=7). The total consumption of glyceryl triheptanoate-containing food was approximately 13.5 g/mouse, amounting to 675 mg total glyceryl triheptanoate ingested by each mouse. Stomachs were minced and boiled for 5 minutes in 5× volumes of water to inactivate intrinsic proteases. […]"}, "[6]": {"conditions": "mice, 5% (w/w) in chow, 14 days, from 0.2 mg wet weight, C-RIA after HPLC, mean ± S.D."}, "[7]": {"conditions": "stomach extract, HPLC fraction, 0.2 mg stomach tissue equivalent"}},
  "note": "Marks after values point to notes of the source that are not given here.",
  "data": [
    {"molecule": "CCCCCCCC(=O)OCC(COC(=O)CCCCCCC)OC(=O)CCCCCCC", "note": "[glyceryl trioctanoate]", "values": [
      {"measurement": "expression level of gastric ghrelin mRNA", "setting": "ghrelin mRNA", "result": "did not change"},
      {"measurement": "C6:0-ghrelin (n-hexanoyl ghrelin) concentration in the stomach", "setting": "[1]; [6]", "result": "12.4 ± 4.9"},
      {"measurement": "C8:0-ghrelin (n-octanoyl ghrelin) concentration in the stomach", "setting": "[1]; [6]", "result": "774.0 ± 89.1^c)"},
      {"measurement": "C10:0-ghrelin (n-decanoyl ghrelin) concentration in the stomach", "setting": "[1]; [6]", "result": "8.1 ± 3.1"},
      {"measurement": "Des-acyl ghrelin concentration in the stomach", "setting": "[1]; [6]", "result": "236.6 ± 21.1"},
      {"measurement": "C10:1-ghrelin (n-decenoyl ghrelin) concentration in the stomach", "setting": "[1]; mice, 5% (w/w) in chow, 14 days, from 0.2 mg wet weight, C-RIA after HPLC, mean ± S.D., fraction holds unidentified ghrelin molecules too", "result": "51.5 ± 13.2^a)"},
      {"measurement": "stomach ghrelin modified by the acyl group corresponding to the ingested lipid", "setting": "[1]; mice, HPLC peak, C-RIA", "result": "stimulated the production of n-octanoyl ghrelin"},
      {"measurement": "molar ratio of n-octanoyl/total ghrelin", "setting": "[1]; stomach of treated mice", "result": "over 60%"},
      {"measurement": "production of acyl-modified ghrelin in stomach tissue", "setting": "[2]", "result": "stimulated production"},
      {"measurement": "stomach concentration of acyl-modified ghrelin vs normal chow", "setting": "[3]; 14 days after ingestion, N-RIA", "result": "remained significantly higher"},
      {"measurement": "onset of increase of acyl-modified ghrelin content in the stomach", "setting": "[3]; mice, 5% w/w chow after 12-hour fasting, N-RIA", "result": "increased three hours after the ingestion"},
      {"measurement": "time to maximal levels of n-octanoyl ghrelin in the stomach after starting ingestion", "setting": "[3]; mice, 5% w/w chow continuously supplied", "result": 24, "unit": "h"},
      {"measurement": "stomach content of total ghrelin", "setting": "[3]; time course, C-RIA", "result": "no significant changes"}
    ]},
    {"molecule": "n-decanoyl ghrelin", "values": [
      {"measurement": "cross-reactivity of N-RIA", "setting": "[4]", "result": 20, "unit": "%"}
    ]},
    {"molecule": "CCCCCCC(=O)OCC(COC(=O)CCCCCC)OC(=O)CCCCCC", "note": "[glyceryl triheptanoate]", "values": [
      {"measurement": "appearance of plasma peak f (retention time of n-heptanoyl ghrelin)", "setting": "plasma ghrelin peptides", "result": "observed only in samples from glyceryl triheptanoate-treated mice"},
      {"measurement": "appearance of peak b / d (n-heptanoyl ghrelin) immunoreactivity in stomach extracts", "setting": "[5]; mice, HPLC, C-RIA / N-RIA", "result": "observed only in mice fed glyceryl triheptanoate"},
      {"measurement": "concentration of peak b (n-heptanoyl ghrelin) determined by C-RIA", "setting": "[5]; [7]", "result": 466.3, "unit": "fmol/tube"},
      {"measurement": "concentration of peak d (n-heptanoyl ghrelin) measured by N-RIA", "setting": "[5]; [7]", "result": 74.9, "unit": "fmol/tube"}
    ]},
    {"molecule": "des-acyl ghrelin: ghrelin peptide in which the position-3 amino acid is not acylated (GSSFLSPEHQRVQQRKESKKPPAKLQPR; Ghrelin-28 non-acylated; UniProt Q9UBU3 24-51, looked up)", "values": [
      {"measurement": "recognition by anti-rat ghrelin [D1-D11] antiserum", "setting": "[4]", "result": "did not recognize"}
    ]},
    {"molecule": "n-hexanoyl ghrelin", "values": [
      {"measurement": "cross-reactivity of N-RIA", "setting": "[4]", "result": 0.3, "unit": "%"}
    ]}
  ]
}
